From ChEMBL document CHEMBL3259601, “Synthesis of novel 1,2,3-triazole substituted-N-alkyl/aryl nitrone derivatives, their anti-inflammatory and anticancer activity” (Eur J Med Chem, 2014)

Key:
[1] = Antiinflammatory activity in human THP1 cells assessed as inhibition of PMA-induced IL-1beta secretion preincubated for 2 hrs followed by PMA challenge measured after 48 hrs by ELISA; type: functional, cell-based; conditions: THP-1
THP-1 = assay: Cytotoxicity against human THP1 cells assessed as effect on cell viability at 20 uM after 48 hrs by trypan blue exclusion assay; type: cell-based; conditions: thp-1, 48 h
A549 = assay: Cytotoxicity against human A549 cells assessed as growth inhibition after 24 hrs by MTT assay; type: functional, cell-based; conditions: A549, 24 h
COLO 205 = assay: Cytotoxicity against human COLO205 cells assessed as growth inhibition after 24 hrs by MTT assay; type: functional, cell-based; conditions: COLO 205, 24 h
MDA-MB-231 = assay: Cytotoxicity against human MDA-MB-231 cells assessed as growth inhibition after 24 hrs by MTT assay; type: functional, cell-based; conditions: MDA-MB-231, 24 h
PC-3 [2] = assay: Cytotoxicity against human PC3 cells assessed as growth inhibition after 24 hrs by MTT assay; type: functional, cell-based; conditions: PC-3, 24 h
PC-3 [3] = assay: Induction of apoptosis in human PC3 cells assessed as activation of caspase-3 using AFC conjugated Ac-DEVD as substrate measured per mg of protein at 8 uM after 12 hrs by fluorescence assay (reference value: 1055.6 +/- 108.2 FU/min); type: functional
PC-3 [4] = assay: Induction of apoptosis in human PC3 cells assessed as activation of caspase-3 using AFC conjugated Ac-DEVD as substrate measured per mg of protein at 10 uM after 12 hrs by fluorescence assay (reference value: 1055.6 +/- 108.2 FU/min); type: functional
PC-3 [5] = assay: Induction of apoptosis in human PC3 cells assessed as activation of caspase-3 using AFC conjugated Ac-DEVD as substrate measured per mg of protein at 8 uM after 24 hrs by fluorescence assay (reference value: 2115.3 +/- 83.2 FU/min); type: functional
PC-3 [6] = assay: Induction of apoptosis in human PC3 cells assessed as activation of caspase-3 using AFC conjugated Ac-DEVD as substrate measured per mg of protein at 10 uM after 24 hrs by fluorescence assay (reference value: 2115.3 +/- 83.2 FU/min); type: functional
PC-3 [7] = assay: Induction of apoptosis in human PC3 cells assessed as activation of caspase-3 using AFC conjugated Ac-DEVD as substrate measured per mg of protein at 8 uM after 36 hrs by fluorescence assay (reference value: 2192.3 +/- 115.9 FU/min); type: functional
PC-3 [8] = assay: Induction of apoptosis in human PC3 cells assessed as activation of caspase-3 using AFC conjugated Ac-DEVD as substrate measured per mg of protein at 10 uM after 36 hrs by fluorescence assay (reference value: 2192.3 +/- 115.9 FU/min); type: functional
PC-3 [9] = assay: Induction of apoptosis in human PC3 cells assessed as activation of caspase-3 using AFC conjugated Ac-DEVD as substrate measured per mg of protein at 8 uM after 48 hrs by fluorescence assay (reference value: 2642.4 +/- 37.5 FU/min); type: functional
PC-3 [10] = assay: Induction of apoptosis in human PC3 cells assessed as activation of caspase-3 using AFC conjugated Ac-DEVD as substrate measured per mg of protein at 10 uM after 48 hrs by fluorescence assay (reference value: 2642.4 +/- 37.5 FU/min); type: functional
PC-3 [11] = assay: Induction of apoptosis in human PC3 cells assessed as activation of caspase-3 using AFC conjugated Ac-DEVD as substrate measured per mg of protein at 1 uM after 12 hrs by fluorescence assay (reference value: 1055.6 +/- 108.2 FU/min); type: functional
PC-3 [12] = assay: Induction of apoptosis in human PC3 cells assessed as activation of caspase-3 using AFC conjugated Ac-DEVD as substrate measured per mg of protein at 2 uM after 12 hrs by fluorescence assay (reference value: 1055.6 +/- 108.2 FU/min); type: functional
PC-3 [13] = assay: Induction of apoptosis in human PC3 cells assessed as activation of caspase-3 using AFC conjugated Ac-DEVD as substrate measured per mg of protein at 1 uM after 24 hrs by fluorescence assay (reference value: 2115.3 +/- 83.2 FU/min); type: functional
PC-3 [14] = assay: Induction of apoptosis in human PC3 cells assessed as activation of caspase-3 using AFC conjugated Ac-DEVD as substrate measured per mg of protein measured per mg of protein at 2 uM after 24 hrs by fluorescence assay (reference value: 2115.3 +/- 83.2 FU/min); type: functional
PC-3 [15] = assay: Induction of apoptosis in human PC3 cells assessed as activation of caspase-3 using AFC conjugated Ac-DEVD as substrate measured per mg of protein at 1 uM after 36 hrs by fluorescence assay (reference value: 2192.3 +/- 115.9 FU/min); type: functional
PC-3 [16] = assay: Induction of apoptosis in human PC3 cells assessed as activation of caspase-3 using AFC conjugated Ac-DEVD as substrate measured per mg of protein at 2 uM after 36 hrs by fluorescence assay (reference value: 2192.3 +/- 115.9 FU/min); type: functional
PC-3 [17] = assay: Induction of apoptosis in human PC3 cells assessed as activation of caspase-3 using AFC conjugated Ac-DEVD as substrate measured per mg of protein at 1 uM after 48 hrs by fluorescence assay (reference value: 2642.4 +/- 37.5 FU/min); type: functional
PC-3 [18] = assay: Induction of apoptosis in human PC3 cells assessed as activation of caspase-3 using AFC conjugated Ac-DEVD as substrate measured per mg of protein at 2 uM after 48 hrs by fluorescence assay (reference value: 2642.4 +/- 37.5 FU/min); type: functional

Row | Structure (SMILES) | IC50 [1] [µM] | Activity (THP-1) | IC50 (A549) [µM] | IC50 (COLO 205) [µM] | IC50 (MDA-MB-231) [µM] | IC50 (PC-3 [2]) [µM] | further results
1 | [O-]/[N+](=C\c1cn(-c2ccccc2)nn1)c1ccccc1 | 8.8 | Non-toxic | > 100 | > 100 | > 100 | > 100 | 
2 | [O-]/[N+](=C\c1cn(-c2ccc(F)cc2)nn1)c1ccccc1 | > 20 | Non-toxic | 12.5 | 10.2 | 9.8 | 11.4 | 
3 | [O-]/[N+](=C\c1cn(-c2ccc(Cl)cc2)nn1)c1ccccc1 | > 20 | Non-toxic | 10.5 | 9.7 | 8.9 | 11.1 | 
4 | CCCCCCCCCCn1cc(/C=[N+](\[O-])c2ccccc2)nn1 | 9.9 | Non-toxic | > 100 | > 100 | > 100 | > 100 | 
5 | [O-]/[N+](=C\c1cn(CCC(F)(F)C(F)(F)C(F)(F)C(F)(F)C(F)(F)C(F)(F)C(F)(F)C(F)(F)F)nn1)c1ccccc1 | 11.7 | Non-toxic | 86.8 | > 100 | > 100 |  | 
6 | [O-]/[N+](=C\c1cn(-c2ccccc2)nn1)Cc1ccccc1 | 8 | Non-toxic | > 100 | > 100 | > 100 |  | 
7 | [O-]/[N+](=C\c1cn(-c2ccc(F)cc2)nn1)Cc1ccccc1 | 9.7 | Non-toxic | > 100 | > 100 | > 100 | > 100 | 
8 | COc1ccc(-n2cc(/C=[N+](\[O-])Cc3ccccc3)nn2)cc1 | 17.3 | Non-toxic | > 100 | > 100 | > 100 | > 100 | 
9 | [O-]/[N+](=C\c1cn(-c2ccc(C(F)(F)F)cc2)nn1)Cc1ccccc1 | 15.4 | Non-toxic | > 100 | > 100 | > 100 | > 100 | 
10 | CCCCCCCCn1cc(/C=[N+](\[O-])Cc2ccccc2)nn1 | 13.1 | Non-toxic | > 100 | > 100 | > 100 | > 100 | 
11 | CCCCCCCCCCn1cc(/C=[N+](\[O-])Cc2ccccc2)nn1 | 15.6 | Non-toxic | > 100 | > 100 | > 100 | > 100 | 
12 | [O-]/[N+](=C\c1cn(CCC(F)(F)C(F)(F)C(F)(F)C(F)(F)C(F)(F)C(F)(F)F)nn1)Cc1ccccc1 | 12.1 | Non-toxic | > 100 | > 100 | > 100 | > 100 | 
13 | [O-]/[N+](=C\c1cn(CCC(F)(F)C(F)(F)C(F)(F)C(F)(F)C(F)(F)C(F)(F)C(F)(F)C(F)(F)F)nn1)Cc1ccccc1 | 17 | Non-toxic | 8.8 | 9.4 | 8.4 | 8.1 | Activity (PC-3 [3]): 2473.2 FU/min; Activity (PC-3 [4]): 2541.4 FU/min; Activity (PC-3 [5]): 3148.5 FU/min; Activity (PC-3 [6]): 3802.2 FU/min; Activity (PC-3 [7]): 3396.8 FU/min; Activity (PC-3 [8]): 4082.5 FU/min; Activity (PC-3 [9]): 4280.8 FU/min; Activity (PC-3 [10]): 4700.5 FU/min
14 | CC(C)(C)/[N+]([O-])=C/c1cn(-c2ccccc2)nn1 | > 20 | Non-toxic | 17.4 | 15.2 | 14.8 | 15.4 | 
15 | CC(C)(C)/[N+]([O-])=C/c1cn(-c2ccc(F)cc2)nn1 | 14 | Non-toxic | 87 | 58.9 | 66.4 | 72.1 | 
16 | COc1ccc(-n2cc(/C=[N+](\[O-])C(C)(C)C)nn2)cc1 | 13.5 | Non-toxic | 23.7 | 19.8 | 23.1 | 23.8 | 
17 | CC(C)(C)/[N+]([O-])=C/c1cn(-c2ccc(C(F)(F)F)cc2)nn1 | 14.4 | Non-toxic | 43.6 | 44.7 | 48.2 | 42 | 
18 | CCCCCCCCn1cc(/C=[N+](\[O-])C(C)(C)C)nn1 | 7.9 | Non-toxic | 31.3 | 30.8 | 29.7 | 24.6 | 
19 | CCCCCCCCCCn1cc(/C=[N+](\[O-])C(C)(C)C)nn1 | 20 | Non-toxic | 24.8 | 22.1 | 20.8 | 19.8 | 
20 | CC(C)(C)/[N+]([O-])=C/c1cn(CCC(F)(F)C(F)(F)C(F)(F)C(F)(F)C(F)(F)C(F)(F)F)nn1 | 8.1 | Non-toxic | 11.5 | 9.5 | 9.8 | 11.2 | 
21 | CC(C)(C)/[N+]([O-])=C/c1cn(CCC(F)(F)C(F)(F)C(F)(F)C(F)(F)C(F)(F)C(F)(F)C(F)(F)C(F)(F)F)nn1 | 15 | Non-toxic | 30.5 | 28.8 | 29.7 | 25.7 | 
22 | COc1cccc2c1C(=O)c1c(O)c3c(c(O)c1C2=O)C[C@@](O)(C(=O)CO)C[C@@H]3O[C@H]1C[C@H](N)[C@H](O)[C@H](C)O1 [DOXORUBICIN] |  |  |  |  |  | 0.6 | Activity (PC-3 [11]): 3033.7 FU/min; Activity (PC-3 [12]): 3331.1 FU/min; Activity (PC-3 [13]): 3791.8 FU/min; Activity (PC-3 [14]): 4007.5 FU/min; Activity (PC-3 [15]): 4794.2 FU/min; Activity (PC-3 [16]): 4994.1 FU/min; Activity (PC-3 [17]): 6690.3 FU/min; Activity (PC-3 [18]): 7240.4 FU/min
23 | CN1C(C(=O)Nc2ccccn2)=C(O)c2ccccc2S1(=O)=O [PIROXICAM] | 18 |  |  |  |  |  | 
